Reference: PubChem BioAssay (NCI)
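Protocol summary: plate cells (96-well), add compound at 5 concentrations, incubate 48 h, interpolate endpoints linearly. The concentration for 50% growth inhibition is given as GI50. TGI is the concentration that stops growth completely.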

What was measured:
Assay in all cases: growth of human tumour cells (NCI), 48 h
786-0 renal = tested on: 786-0 renal
A498 renal = tested on: A498 renal
A549 NSCLC = tested on: A549 NSCLC
ACHN renal = tested on: ACHN renal
BT-549 breast = tested on: BT-549 breast
CCRF-CEM leukemia = tested on: CCRF-CEM leukemia
COLO 205 colon = tested on: COLO 205 colon
DU-145 prostate = tested on: DU-145 prostate
EKVX NSCLC = tested on: EKVX NSCLC
HCC-2998 colon = tested on: HCC-2998 colon
HCT-116 colon = tested on: HCT-116 colon
HCT-15 colon = tested on: HCT-15 colon
HL-60(TB) leukemia = tested on: HL-60(TB) leukemia
HOP-62 NSCLC = tested on: HOP-62 NSCLC
HOP-92 NSCLC = tested on: HOP-92 NSCLC
HS 578T breast = tested on: HS 578T breast
HT29 colon = tested on: HT29 colon
IGROV1 ovarian = tested on: IGROV1 ovarian
K-562 leukemia = tested on: K-562 leukemia
KM12 colon = tested on: KM12 colon
M14 melanoma = tested on: M14 melanoma
MALME-3M melanoma = tested on: MALME-3M melanoma
MCF7 breast = tested on: MCF7 breast
MDA-MB-435 = tested on: MDA-MB-435
MOLT-4 leukemia = tested on: MOLT-4 leukemia
NCI-H226 lung = tested on: NCI-H226 lung
NCI-H23 lung = tested on: NCI-H23 lung
NCI-H460 lung = tested on: NCI-H460 lung
NCI-H522 lung = tested on: NCI-H522 lung
NCI/ADR-RES ovarian = tested on: NCI/ADR-RES ovarian
OVCAR-4 ovarian = tested on: OVCAR-4 ovarian
OVCAR-5 ovarian = tested on: OVCAR-5 ovarian
OVCAR-8 ovarian = tested on: OVCAR-8 ovarian
PC-3 prostate = tested on: PC-3 prostate
RPMI-8226 leukemia = tested on: RPMI-8226 leukemia
RXF 393 renal = tested on: RXF 393 renal
SF-268 CNS = tested on: SF-268 CNS
SF-295 CNS = tested on: SF-295 CNS
SF-539 CNS = tested on: SF-539 CNS
SK-MEL-2 melanoma = tested on: SK-MEL-2 melanoma
SK-MEL-28 melanoma = tested on: SK-MEL-28 melanoma
SK-MEL-5 melanoma = tested on: SK-MEL-5 melanoma
SK-OV-3 ovarian = tested on: SK-OV-3 ovarian
SN12C renal = tested on: SN12C renal
SNB-19 CNS = tested on: SNB-19 CNS
SNB-75 CNS = tested on: SNB-75 CNS
SR leukemia = tested on: SR leukemia
SW-620 colon = tested on: SW-620 colon
T-47D breast = tested on: T-47D breast
TK-10 renal = tested on: TK-10 renal
U251 CNS = tested on: U251 CNS
UACC-257 melanoma = tested on: UACC-257 melanoma
UACC-62 melanoma = tested on: UACC-62 melanoma
UO-31 renal = tested on: UO-31 renal

CCOC(=O)c1c(NC(=O)c2ccccc2C(F)(F)F)sc2c1CCC(=O)C2
GI50 (786-0 renal): 4.63 µM
TGI (786-0 renal): > 100 µM
GI50 (A498 renal): 11.5 µM
TGI (A498 renal): 49.2 µM
GI50 (A549 NSCLC): 3.51 µM
TGI (A549 NSCLC): > 100 µM
GI50 (ACHN renal): 3.33 µM
TGI (ACHN renal): 10.4 µM
GI50 (BT-549 breast): 3.35 µM
TGI (BT-549 breast): > 100 µM
GI50 (CCRF-CEM leukemia): 3.24 µM
TGI (CCRF-CEM leukemia): > 100 µM
GI50 (COLO 205 colon): 2.12 µM
TGI (COLO 205 colon): 4.12 µM
GI50 (DU-145 prostate): 4.44 µM
TGI (DU-145 prostate): > 100 µM
GI50 (EKVX NSCLC): 3.41 µM
TGI (EKVX NSCLC): 23.6 µM
GI50 (HCC-2998 colon): 3.16 µM
TGI (HCC-2998 colon): 10.5 µM
GI50 (HCT-116 colon): 3.29 µM
TGI (HCT-116 colon): 12.6 µM
GI50 (HCT-15 colon): 2.72 µM
TGI (HCT-15 colon): 10.3 µM
GI50 (HL-60(TB) leukemia): 2.4 µM
TGI (HL-60(TB) leukemia): 6.48 µM
GI50 (HOP-62 NSCLC): 3.71 µM
TGI (HOP-62 NSCLC): > 100 µM
GI50 (HOP-92 NSCLC): 1.82 µM
TGI (HOP-92 NSCLC): 5.52 µM
GI50 (HS 578T breast): 4.66 µM
TGI (HS 578T breast): > 100 µM
GI50 (HT29 colon): 3.1 µM
TGI (HT29 colon): 8.75 µM
GI50 (IGROV1 ovarian): 3.09 µM
TGI (IGROV1 ovarian): 10.3 µM
GI50 (K-562 leukemia): 1.98 µM
TGI (K-562 leukemia): > 100 µM
GI50 (KM12 colon): 2.69 µM
TGI (KM12 colon): 7.21 µM
GI50 (M14 melanoma): 3.94 µM
TGI (M14 melanoma): > 100 µM
GI50 (MALME-3M melanoma): 2.78 µM
TGI (MALME-3M melanoma): 8 µM
GI50 (MCF7 breast): 2.79 µM
TGI (MCF7 breast): 30.2 µM
GI50 (MDA-MB-435): 3.18 µM
TGI (MDA-MB-435): 11.6 µM
GI50 (MOLT-4 leukemia): 3.54 µM
TGI (MOLT-4 leukemia): > 100 µM
GI50 (NCI-H226 lung): 2.94 µM
TGI (NCI-H226 lung): 9.47 µM
GI50 (NCI-H23 lung): 2.93 µM
TGI (NCI-H23 lung): 9.25 µM
GI50 (NCI-H460 lung): 3.48 µM
TGI (NCI-H460 lung): 12.1 µM
GI50 (NCI-H522 lung): 1.92 µM
TGI (NCI-H522 lung): 4.82 µM
GI50 (NCI/ADR-RES ovarian): 3.09 µM
TGI (NCI/ADR-RES ovarian): 11.2 µM
GI50 (OVCAR-4 ovarian): 3.79 µM
TGI (OVCAR-4 ovarian): > 100 µM
GI50 (OVCAR-5 ovarian): 2.52 µM
TGI (OVCAR-5 ovarian): 7.1 µM
GI50 (OVCAR-8 ovarian): 3.4 µM
TGI (OVCAR-8 ovarian): > 100 µM
GI50 (PC-3 prostate): 2.45 µM
TGI (PC-3 prostate): 7.68 µM
GI50 (RPMI-8226 leukemia): 1.95 µM
TGI (RPMI-8226 leukemia): 5.46 µM
GI50 (RXF 393 renal): 2.39 µM
TGI (RXF 393 renal): 8.09 µM
GI50 (SF-268 CNS): 3.96 µM
TGI (SF-268 CNS): > 100 µM
GI50 (SF-295 CNS): 2.58 µM
TGI (SF-295 CNS): 7.64 µM
GI50 (SF-539 CNS): 1.87 µM
TGI (SF-539 CNS): 3.72 µM
GI50 (SK-MEL-2 melanoma): 2.75 µM
TGI (SK-MEL-2 melanoma): 8.82 µM
GI50 (SK-MEL-28 melanoma): 4.51 µM
TGI (SK-MEL-28 melanoma): 65 µM
GI50 (SK-MEL-5 melanoma): 1.88 µM
TGI (SK-MEL-5 melanoma): 3.64 µM
GI50 (SK-OV-3 ovarian): 3.18 µM
TGI (SK-OV-3 ovarian): > 100 µM
GI50 (SN12C renal): 3.06 µM
TGI (SN12C renal): > 100 µM
GI50 (SNB-19 CNS): 3.85 µM
TGI (SNB-19 CNS): 41.2 µM
GI50 (SNB-75 CNS): 1.39 µM
TGI (SNB-75 CNS): 7.14 µM
GI50 (SR leukemia): 2.33 µM
TGI (SR leukemia): > 100 µM
GI50 (SW-620 colon): 2.64 µM
TGI (SW-620 colon): 10 µM
GI50 (T-47D breast): 3.12 µM
TGI (T-47D breast): > 100 µM
GI50 (TK-10 renal): 5.36 µM
TGI (TK-10 renal): > 100 µM
GI50 (U251 CNS): 0.792 µM
TGI (U251 CNS): 12 µM
GI50 (UACC-257 melanoma): 3.49 µM
TGI (UACC-257 melanoma): 37.8 µM
GI50 (UACC-62 melanoma): 2.83 µM
TGI (UACC-62 melanoma): 11.5 µM
GI50 (UO-31 renal): 2.3 µM
TGI (UO-31 renal): 7.57 µM
